Where two headings read alike, the source gives them in different places.
Key:
[1] = Whole blood stability, mouse; format: in vitro ADME; conditions: 37° C.; for % Remaining: 1 μM; for half-life at 1 μM: male, Balb/c, fresh whole blood
Experimental: For example, in some embodiments, provided compounds have suitable stability profiles for various applications including therapeutic uses. Various technologies are available in the art for assessing properties, e.g., stability, of compounds and compositions, and can be utilized in accordance with the present disclosure. Certain useful technologies are described herein as examples. In some embodiments, stability was assessed in fresh blood samples, e.g., of human or mouse.
In some embodiments, fresh blood samples were collected from male Balb/c mouse with EDTA-K2 as anti-coagulant. Blood was collected before experiment and stored at 2˜8° C., and equilibrated to room temperature before use. Compounds were dissolved in DMSO at 10 mM concentration. Glibenclamide, used as an internal standard (1S), was prepared in DMSO at 1 mg/mL concentration. An aliquot of 594 μL of blank blood was spiked with 6 μL of working solution (100 μM) to achieve 1 μM of final concentration for test compounds. Solution samples were incubated for 0, 10, 30, 60, 90 and 120 minutes at 37° C., e.g., in a water bath.
An Agilent ZORBAX XDB-C18 (3.5 μm, 50×2.1 mm) was used for HPLC analysis. Mobile phases were 0.1% formic acid in water (mobile phase A), and 0.1% formic acid in acetonitrile (mobile phase B). The injection volume was 10 μL. Mass spectrometer was calibrated and tuned for each test compound. The % remaining of test compound in blood was calculated using the following equation: […]

[2] = system: HT-1080 (fibrosarcoma) cells; assay: Cell viability (CellTiter Glo) assay, inhibition of HT-1080 cell proliferation; format: cell-based; conditions: Homo sapiens, HT-1080 cells, 72 hours
786-O cells = assay: Anti-proliferation activity in 786-O cells in the presence of a ferroptosis inhibitor (Ferrostatin-1 or Liproxstatin-1); format: cell-based; conditions: Homo sapiens
Experimental: In one assessment, cells (KP4, 786-0 and HT-1080) were seeded (700 cells/well, 1000 cells/well or 3000 cells/well) in 384-well or 96-well plates and incubated at 37° C./5% CO2 for 22-24 hours. A series of 8 different concentrations of compound stocks were created by 5-fold serial dilution in DMSO. These compounds were further diluted in culture media and were then added to cells (final concentrations: 100 μM, 20 μM, 4 μM, 0.8 μM, 0.16 μM, […].). After 72 hours of incubation, 30 μL of CellTiter Glo reagent (Promega) was added to each well and luminescence was measured after 10 minutes using SpectraMax M5/M5e (Molecular Devices). Luminescence from cells treated with DMSO alone was set as background and % of inhibition was calculated as follows: […]
Anti-proliferation activity of various compounds was also tested in the presence of an ferroptosis inhibitor, Ferrostatin-1 (2 μM) or Liproxstatin-1 (2 μM). Certain results are provided in Table 4 and Table 5 as examples. “A” indicates an IC50≤100 nM; “B” indicates an IC50 of >100 nM and ≤500 nM; “C” indicates an IC50>500 nM and ≤5 μM; and “D” indicates an IC50>5 μM.

[3] = Whole blood stability, human; format: in vitro ADME; conditions: 37° C.; for % Remaining: 1 μM; for half-life at 1 μM: fresh whole blood
[4] = system: 786-O (renal cell carcinoma) cells; assay: Cell viability (CellTiter Glo) assay, inhibition of 786-O cell proliferation; format: cell-based; conditions: Homo sapiens, 786-0; 786-O cells, 72 hours, CellTiter Glo; read-out: IC50, inhibition of 786-O cell proliferation
[5] = system: KP4 (pancreatic ductal adenocarcinoma) cells; assay: Cell viability (CellTiter Glo) assay, inhibition of KP4 cell proliferation; format: cell-based; conditions: Homo sapiens, KP-4; KP4 cells, 72 hours, CellTiter Glo; read-out: IC50, inhibition of KP4 cell proliferation
[6] = 786-0, 72 h, no ferroptosis inhibitor, read-out: IC50, No Ferroptosis Inhibitor (Table 5)

| SMILES | % Remaining ([1]; @ 240 min) [% @ 240 min] | half-life at 1 μM [1] [h] | IC50 [2] [nM] | IC50 (786-O cells; [6]) [nM] | % Remaining ([3]; @ 240 min) [% @ 240 min] | half-life at 1 μM [3] [h] | IC50 [4] [nM] | IC50 [5] [nM] | % Remaining ([1]; @ 120 min) [% @ 120 min] | % Remaining ([3]; @ 120 min) [% @ 120 min] | IC50 (786-O cells; 786-0, Ferrostatin-1 (2 μM), read-out: IC50, With Ferrostatin-1) [nM] | IC50 (786-O cells; 786-0, no ferroptosis inhibitor, read-out: IC50, No Ferroptosis Inhibitor (Table 4)) [nM] |
| --- | --- | --- | --- | --- | --- | --- | --- | --- | --- | --- | --- | --- |
| CC1(C)CN(c2ccc(Oc3ccccc3)cc2)c2nc(COC(=N)N3CCC(F)(F)CC3)nc(N)c21 [Compound E2] | 63.9 | 6.47 | < 100 | < 100 | 69.7 | 7.85 | < 100 | – | – | – | – | – |
| N=C(OCc1nc(N)nc(Nc2ccc(Oc3ccccc3)cc2)n1)N1CCOCC1 [Compound F6] | – | 5.65 | < 100 | – | – | 6.07 | 100 to 500 | < 100 | 78 | 84 | – | – |
| N=C(OCc1nc(N)nc(Nc2ccc(Oc3ccccc3)cc2)n1)N1CCC(F)(F)CC1 [Compound F13] | 74 | 7.95 | < 100 | – | 57.6 | 5.35 | < 100 | < 100 | – | – | > 5000 | < 100 |
| CCN1CCN(C(=N)OCc2nc(N)nc(Nc3ccc(Oc4ccccc4)cc3)n2)C2(CC2)C1=O [Compound F19] | – | – | 500 to 5000 | 100 to 500 | – | – | 100 to 500 | – | – | – | – | – |
| N=C(NC12CC3CC(CC(C3)C1)C2)OCc1nc(N)nc(Nc2ccc(Oc3ccccc3)cc2)n1 [Compound F20] | – | – | 100 to 500 | 100 to 500 | – | – | 100 to 500 | – | – | – | – | – |
| CN(C(=N)OCc1nc(N)nc(Nc2ccc(Oc3ccccc3)cc2)n1)C1CCCCC1 [Compound F22] | – | – | 100 to 500 | < 100 | – | – | < 100 | – | – | – | – | – |
